Experimental data as given in a melting point compilation (Tetko et al.; mined from patent text by program, amines drawn as free bases though some values may be those of a salt).

Point of comparison: `COc1cc(C(=O)c2ncc3ccc(C(=O)O)cn23)ccc1N`, melting point 306 °C. Against it:
- CN1CCN(C(=O)c2ccc([N+](=O)[O-])cc2)CC1 — lower, 100 to 101 °C
- CCC(O)(C#Cc1ncn2c1CN(C)C(=O)c1cc(F)ccc1-2)CC — lower, 135 to 136 °C
- COC(=O)C=Cc1cc(C(=O)O)ccc1NC(=O)NC(=O)c1cc(F)c(F)cc1Cl — lower, 99 °C
- N#Cc1cnc2cc(F)c(OCCN3CCOCC3)cc2c1Cl — lower, 163 to 164 °C
- Cn1nc(C(F)(F)F)c(CS(=O)C2=NOC(C)(C)C2)c1OC(F)F (centres undefined) — lower, 112 to 114 °C
- O=C1C2CCCN2C(=O)N1c1ccc([N+](=O)[O-])c2ccccc12 (centres undefined) — lower, 215 to 217 °C
- COC1CCN(c2cc(NC(=O)OC(C)(C)C)c(NC(=O)CC(=O)c3cccc(C#N)c3)cc2C#Cc2ccccc2)CC1 — lower, 97 to 100 °C
- Cc1cc(=O)c(Oc2ccc(F)cc2F)c(-c2ccc(S(C)=O)cc2)o1 (centres undefined) — lower, 158 to 159 °C
- CC(C)(C(=O)O)c1cn2nc(CCCN3CCC(OC(c4ccccc4)c4ccccc4)CC3)ccc2n1 — lower, 195 to 205 °C
- CN(C)CC=CC(=O)Nc1ccc2ncc(C#N)c(Nc3cccc(Br)c3)c2c1 — lower, 209 to 211 °C
- C=CCOc1ccc(OC)c2ccccc12 — lower, 30.5 to 32 °C
- C=C1CCC2C3CC=C4C=C(OC)CCC4(C)C3CCC12C (centres undefined) — lower, 97 to 99 °C
- CNC(=O)N1N=C(c2ccc(N)cc2)c2cc3c(cc2CC1C)OCO3 (centres undefined) — lower, 133 to 135 °C
- COC(=O)c1cc2c(OC[C@@H](O)CN3CCC(c4ccc5ccccc5c4)CC3)cccc2o1 — lower, 118 to 119 °C
- O=C(c1ccc(O)cc1)c1ccc2cc(C(=O)c3ccc(O)cc3)ccc2c1 — higher, 307 °C
- O=P(O)(O)C(O)(Cc1ccc2ccccc2c1)P(=O)(O)O — lower, 257 °C
- Cn1cc(I)c(=O)n(C)c1=O — lower, 226 to 228 °C
- COc1ccc(C(c2ccc(OC)cc2)(c2ccc(OC)cc2)N2CCCCC2)cc1 — lower, 73 to 75 °C
- COc1ccc(OC)c(C(O)c2cccc(N)c2)c1 (centres undefined) — lower, 132 to 134 °C
- COc1ccc2cc3c(c(-c4ccc(F)cc4)c2c1)CNC3=O — lower, 282 to 284 °C
- CN(C)c1ccc(NC(=O)N(C)c2cccc(-c3ccc(CC4SC(=O)NC4=O)cc3)c2)cc1 (centres undefined) — lower, 102 °C
- CCCCn1c(=O)c2nn(S(=O)(=O)c3ccc4ccccc4c3)cc2n(CCCC)c1=O — lower, 167 to 168 °C
- CC(=O)OC1CSC(Oc2cncc(-c3ccc(CO)cc3)c2)C(OC(C)=O)C1OC(C)=O (centres undefined) — lower, 132 to 133 °C
- CN(C)c1ccc(C2OC(C)(C)N=C2c2ccccc2Cl)cc1 (centres undefined) — lower, 72.5 to 73.5 °C
- CCC(CC)N(O)C(=O)Nc1ccc(Br)cc1 — lower, 129 to 131 °C
- COC(=O)ON=C1C(=O)c2ccccc2-c2ccccc21 — lower, 142 to 143 °C
- CCOC(=O)c1c(N)n(C)c2cc(Cl)ccc12 — lower, 155 to 157 °C
- O=c1[nH]c(N2CCNC(CO)C2)cc2c(Br)cccc12 (centres undefined) — not separable, > 230 °C
- N#Cc1cccc2c1CCC2O (centres undefined) — lower, 98 °C
- CCOC(=O)c1cnn(-c2ccc(N)cc2)c1C(F)(F)F — lower, 102 to 103 °C
- Cc1cc(Cl)ccc1Cn1nc(OC(C)C)cc1CCCOc1ncccc1CC(=O)O — lower, 97 to 98 °C
- N#Cc1ccc2c(c1)ncn2-c1cccc(Br)c1 — lower, 168 to 174 °C
- CNc1nc(-c2cccc(NC(=O)c3ccc(O)cc3)c2)c2cc(OC)c(OC)cc2n1 — lower, 178 to 180 °C
- CCCCC12CCC3C4=C(CCC3C1CCC2O)CC(OC)=CC4 (centres undefined) — lower, 135 to 139 °C
- Cc1cc(CCCOc2c(C)cc(C(=O)O)cc2C)on1 — lower, 156 to 157 °C
- CCCCCCCC(=O)OCC(COC(=O)CCCCCCC)OCn1cnc2c(=O)[nH]c(N)nc21 — lower, 165 to 166 °C
- COC(=O)c1cccc(N)c1S — lower, 174 to 175 °C
- CCn1cnc2c(Nc3cccc(Cl)c3)nc(Cl)nc21 — lower, 127 to 128 °C
- Cc1[nH]cnc1CCc1ccc2nc(N)sc2c1 — lower, 191 to 193 °C
- COc1c(C(=O)O)cc(Cl)c(N)c1C — lower, 151 °C
- COc1ccc2c(C(=O)N[C@H](Cc3ccc(C(F)(F)F)cc3)[C@@H](O)c3ccc(F)cc3)cccc2c1 (racemic) — lower, 193 to 194 °C
- O=C(O)CC(CC(=O)O)c1ccc(F)cc1 — lower, 145 to 147 °C
- CCOc1ccc2c(c1)n(C1CCCCC1)c(=O)n2S(=O)(=O)c1ccc(C(=O)NC(C)(C)CC)cc1OC — lower, 219 °C
- CC(=O)Oc1ccc(C2=CC(C)(C)c3ccccc3O2)cc1 — lower, 84 to 86 °C
- N#Cc1ccc(Oc2ccc3c(c2)CCNC3=O)nc1 — lower, 192 to 194 °C
- CN1CCN(c2cc3nc4c(cc3cc2F)c(=O)c(C#N)cn4C)CC1 — higher, 335 °C
- CN(C(=O)Cc1ccc(Cl)c(Cl)c1)[C@@H]1Cc2ccccc2C[C@H]1N1CCCC1 (relative stereo) — lower, 161 to 164 °C
- CCOC(=O)c1nc(NC)sc1-c1ccccn1 — lower, 120 to 121 °C
